Test results reported in patent US20150322001A1, “OMEGA-3 ANALOGUES” (The University of Sydney, priority 2012, published 2015).

Assays:
[1] = test system: human MDA-MB-231 breast cancer cell xenografts; assay: In vivo dose-response study of compound 29, MDA-MB-231 xenografts in nude mice; conditions: for toxicity of the treatment (growth rates): all dose groups
Method: One of the synthesised compounds given in Table 1 (compound 29, reproduced below) was the subject of an in vivo dose-response study in nude mice with human MDA-MB-231 breast cancer cell xenografts. One group received compound 15 in parallel.
nu/nu Balb/c; Age: 6 weeks at commencement of study; Gender: female
control, compound 29 (2.5 mg/kg), compound 29 (10 mg/kg), compound 29 (40 mg/kg) and compound 15 (10 mg/kg); 5 mice/group
human MDA-MB-231 cells, 4×10^5 cells/100 μl (Matrigel:PBS 1:1)/mouse, subcutaneous injection into the 4th mammary fat pad.
after 4 days animals received compound 29 at 40, 10 and 2.5 mg/kg doses (in corn oil, Sigma, and 8% DMSO), or compound 15 at 10 mg/kg in corn oil at 4% DMSO, 6 days each week, for 38 days. Control: 8% DMSO in corn oil.
weighed six days a week; tumour sizes measured with calipers every 3 to 4 days.

[2] = test system: MDA-MB-231 cells; assay: MTT assay, inhibition of proliferation of MDA-MB-231 cells; assay type: cell-based, human; conditions: Homo sapiens, MTT reduction, 24 h
Method: The synthesized compounds given in Table 1 were tested for their activity in inhibiting the proliferation of MDA-MB-231 cells.
• 1. Cell culture and cell treatment: Breast cancer MDA-MB-231 cells were maintained in monolayers at 37° C. in DMEM containing penicillin and streptomycin, L-glutamine and 10% fetal bovine serum in an atmosphere of 95% air and 5% CO2. Cells were seeded into multi-well plates at 5×10^4 cells/mL; media was replaced 24 h later with fresh serum-free DMEM containing one of the test compounds in DMSO. DMSO was added to control cells at a final concentration of 0.1%. • 2. MTT assay: MDA-MB-231 cells were seeded in 96 well plates (0.2 mL/well), treated with compounds at 0.01, 0.1, 0.5, 1, 5 and 10 μM for 24 h. MTT (25 μL of 2.5 mg/mL solution) was added to each well for 2 h, after which MTT and media were removed. The blue formazan product formed from MTT by live cells was dissolved in DMSO (100 μL/well) and quantified spectrophotometrically at 540 nm in a multilabel counter. IC50s were calculated using GraphPad Prism (Prism 5.01). • 3. Caspase 3 activity: MDA-MB-231 cells were seeded in 96 well plates (0.2 mL/well), and were treated with compounds at 0.1, 0.5 and 1 μM for 24 h. Caspase 3 activity was quantified using the Caspase-Glo 3/7 assay kit according to manufacturer's protocol (Promega). Briefly, after 24 h treatment, fresh serum-free media was added to wells. Cells were equilibrated at room temperature for 30 min, caspase 3/7 substrate in lysis buffer was added and the luminescence was measured. Relative caspase 3/7 activity was calculated as [(luminescence in treatment−luminescence in control)/luminescence in control×100%]. • 4. Annexin V assay: MDA-MB-231 cells were seeded in 6 well plates (3 mL/well), and were treated with compounds at 0.1, 0.5 and 1 μM for 24 h. The apoptotic cells were quantified by Annexin V staining according to the manufacture's protocol (BD Biosciences). Briefly, after 24 h treatment, the media and harvested cells were collected, followed by PBS washes. Cells were stained with Annexin V and PI in binding buffer for 15 min at room temperature and quantified by flow cytometry (BD Biosciences). The apoptotic cells (%) were calculated as [(Annexin V positive cells in treatment−Annexin V positive cells in control)/Annexin V positive cells in control×100%]. • 5. Matrigel assay: MDA-MB-231 cells were trypsinized and resuspended in serum-free DMEM media (3.5×10^6 cells/mL). The cell suspension was mixed 1:1 with Matrigel solution (Bio Scientific). Aliquots (20 μL containing 3.5×10^4 cells) were placed into 6-well tissue-culture dishes to form well-defined droplets and incubated at 37° C. for 5 min to enable semi-solidification. Migration media was freshly made as DMEM containing 20% fetal bovine serum, epidermal growth factor 10 pg/mL, hydrocortisone 0.4 ng/mL, vascular endothelial growth factor (VEGF, 1 pg/mL), basic fibroblast growth factor (bFGF, 20 pg/mL), insulin-like growth factor-1 (40 pg/mL), ascorbic acid (2 ng/mL) and heparin (45 ng/mL). Compounds were added in migration media (3 mL/well) and plates were then incubated for 24 h. Cells that migrated out of droplets were scored using phase-contrast microscopy and digital image analysis (Olympus). • 6. Real-time RT PCR: Cell droplets from migration assays were collected, and total RNA was extracted using Tri Reagent (Astral Scientific) according to the manufacturer's protocol. RNA samples were treated with DNase (Promega) and gene expression was quantified using an Express Onestep Superscript qRT-PCT kit (Invitrogen) and gene-specific primers: heparanase (forward) […] and (reverse) GCAGCAACTTTGGCATTTC, integrin-α3 (forward) […] and (reverse) […], actin (forward) […] and (reverse) […]. The cycling conditions (Roto-Gene™ 6000; Corbett Research) were as follows: 95° C. (15 min); 40 cycles of denaturation (95° C., 30 s); annealing (60° C., 1 min); elongation (72° C., 1 min). […]

[3] = test system: MDA-MB-231 cells; assay: Proapoptotic activity in MDA-MB-231 cells (JC-1 staining, confluence); assay type: cell-based, human
Method: Several of the compounds were tested for the capacity to induce apoptosis in MDA-MB-231 cells (10 μM, 24 hr treatments). […] In view of the finding with compound 29 a concentration-relationship was developed with caspase-3/7 activity (an established marker of apoptosis) as the endpoint (FIG. 11).

[4] = test system: MCF-7 cells; assay: MTT reduction in MCF-7 cells; assay type: cell-based; conditions: compared with MDA-MB-231
Method: These are also breast cancer cell lines, but are less aggressive than the MDA-MD-231 cells.
(§1) • 1. Cell culture and cell treatment: Breast cancer MDA-MB-231 cells were maintained in monolayers at 37° C. in DMEM containing penicillin and streptomycin, L-glutamine and 10% fetal bovine serum in an atmosphere of 95% air and 5% CO2. Cells were seeded into multi-well plates at 5×10^4 cells/mL; media was replaced 24 h later with fresh serum-free DMEM containing one of the test compounds in DMSO. DMSO was added to control cells at a final concentration of 0.1%. • 2. MTT assay: MDA-MB-231 cells were seeded in 96 well plates (0.2 mL/well), treated with compounds at 0.01, 0.1, 0.5, 1, 5 and 10 μM for 24 h. […] The blue formazan product formed from MTT by live cells was dissolved in DMSO (100 μL/well) and quantified spectrophotometrically at 540 nm in a multilabel counter. IC50s were calculated using GraphPad Prism (Prism 5.01). • 3. […] Caspase 3 activity was quantified using the Caspase-Glo 3/7 assay kit according to manufacturer's protocol (Promega). […] Cells were equilibrated at room temperature for 30 min, caspase 3/7 substrate in lysis buffer was added and the luminescence was measured. Relative caspase 3/7 activity was calculated as [(luminescence in treatment−luminescence in control)/luminescence in control×100%]. • 4. […]

[5] = test system: MDA-MB-468 cells; assay: MTT reduction in MDA-MB-468 cells; assay type: cell-based; conditions: compared with MDA-MB-231
[6] = test system: MDA-MB-231 cells; assay: Matrigel assay, migration of MDA-MB-231 cells out of matrigel droplets; assay type: cell-based, human
Method: This supports the finding that these compounds are effective against metastatic cancer cells.
as §1

[7] = test system: MDA-MB-231 breast cancer cell xenografts; assay: In vivo evaluation of compound 15, MDA-MB-231 xenografts in nude mice; conditions: 10 mg/kg intraperitoneally, 39 days
Method: One of the synthesised compounds given in Table 1 (compound 15, reproduced below) was tested for its activity in inhibiting the proliferation of MDA-MB-231 breast cancer cell xenografts in nude mice.
female nu/nu Balb/c mice of 5-6 weeks age at the commencement of the experiment (one week acclimatization after arrival in the animal facility).
two groups of 8 mice each.
MDA-MB-231 cells, 4×10^5 cells/100 μL (Matrigel:phosphate-buffered saline, 1:1) per mouse; subcutaneous injection into the mammary pad.
4 days after cancer cell xenografting compound 15 was administered intraperitoneally at a dose of 10 mg/kg in corn oil (Sigma, containing 2% dimethylsulfoxide). Dosing continued for 6 days per week, for a total of 39 days. Control animals received 2% dimethylsulfoxide in corn oil, 100 μL per 20 g mouse for the same duration.
Body weights were measured daily and tumour sizes every three days (with calipers).

[8] = test system: MDA-MB-231 cells; assay: Annexin V assay (apoptotic cells) in MDA-MB-231 cells; assay type: cell-based, human; conditions: FIG. 2
Method: (§2) • 1. Cell culture and cell treatment: Breast cancer MDA-MB-231 cells were maintained in monolayers at 37° C. in DMEM containing penicillin and streptomycin, L-glutamine and 10% fetal bovine serum in an atmosphere of 95% air and 5% CO2. Cells were seeded into multi-well plates at 5×10^4 cells/mL; media was replaced 24 h later with fresh serum-free DMEM containing one of the test compounds in DMSO. DMSO was added to control cells at a final concentration of 0.1%. • 2. MTT assay: MDA-MB-231 cells were seeded in 96 well plates (0.2 mL/well), treated with compounds at 0.01, 0.1, 0.5, 1, 5 and 10 μM for 24 h. […] The blue formazan product formed from MTT by live cells was dissolved in DMSO (100 μL/well) and quantified spectrophotometrically at 540 nm in a multilabel counter. IC50s were calculated using GraphPad Prism (Prism 5.01). • 3. […] Caspase 3 activity was quantified using the Caspase-Glo 3/7 assay kit according to manufacturer's protocol (Promega). […] Cells were equilibrated at room temperature for 30 min, caspase 3/7 substrate in lysis buffer was added and the luminescence was measured. Relative caspase 3/7 activity was calculated as [(luminescence in treatment−luminescence in control)/luminescence in control×100%]. • 4. […] The apoptotic cells were quantified by Annexin V staining according to the manufacture's protocol (BD Biosciences). […]

[9] = test system: MDA-MB-231 cells; assay: Caspase 3 activity (Caspase-Glo 3/7) in MDA-MB-231 cells; assay type: cell-based, human; conditions: 0.1 μM, FIG. 1
Method: as §2

O=C(O)CCCCCCCCCCCCCCCNC(=O)Nc1ccc(Cl)c(C(F)(F)F)c1 [Compound 29, 16-({[4-chloro-3-(trifluoromethyl)phenyl]carbamoyl)amino}hexadecanoic acid]
tumour growth rate and volume at later time points (after day 25) ([1]; 2.5 mg/kg, FIG. 9): larger than the compound 29 (40 mg/kg) group
tumour growth ([1]; 10 mg/kg, FIG. 9): decreased from day 32
tumour weights versus control and 2.5 mg/kg groups ([1]; 40 mg/kg, day 38): significantly smaller
tumour volumes versus control and 2.5 mg/kg groups ([1]; 40 mg/kg, day 38, FIG. 9): significantly smaller
toxicity of the treatment (growth rates) ([1]; 38 days): non-toxic
mouse body weight gain or loss ([1]; compound 29 2.5 mg/kg, 38 days, FIG. 7): gained weight at a steady and similar rate
mouse body weight gain or loss ([1]; compound 29 10 mg/kg, 38 days, FIG. 7): gained weight at a steady and similar rate
mouse body weight gain or loss ([1]; compound 29 40 mg/kg, 38 days, FIG. 7): gained weight at a steady and similar rate
tumour foci in the peritoneal cavity ([1]; compound 29-treated mice (2.5, 10, 40 mg/kg), 38 days): No tumour foci were seen
IC50 [2]: 1.1 µM
JC-1 staining (mitochondrial damage) ([3]; 10 μM, 24 hr, FIG. 10): Increased JC-1 staining
confluence of treated cells ([3]; FIG. 12): decreased confluence

CCNC(=O)NCCCCCCCCCCCCCCCC(=O)O [Compound 19, 16-[(ethylcarbamoyl)amino]hexadecanoic acid]
IC50 [2]: 1.8 µM
inhibition of MTT reduction [4]: inhibited MTT reduction
inhibition of MTT reduction [5]: inhibited MTT reduction
migration of cells in the matrigel assay ([6]; 10 μM): 61±5 % of control

CCOC(=O)CCCCCCCCCCCCCCCNC(=O)Nc1ccc(C)cc1 [Compound 15, Ethyl 16-{[(4-methylphenyl)carbamoyl]amino}hexadecanoate]
toxicity of the treatment (growth rates) ([1]; 38 days): non-toxic
mouse body weight gain or loss ([1]; compound 15 10 mg/kg IP, 38 days, FIG. 8): lost weight at the early stage of IP injections
IC50 [2]: 0.02 µM
dose limiting toxicity ([7]; 6 days per week): no dose limiting toxicity
mouse body weight loss ([7]; 6 days per week, FIG. 4): greater with compound 15 than control
tumour metastasis [7]: appears to suppress tumour metastasis
primary tumour growth (growth rate and volume) ([7]; FIG. 5): did not prevent primary tumour growth
mice with white small foci in the abdominal cavity ([7]; controls 7/8): 1/8

Cc1ccc(NC(=O)NCCCCCCCCCCCCCCCC(=O)O)cc1 [Compound 16, 16-{[(4-methylphenyl)carbamoyl]amino}hexadecanoic acid]
IC50 [2]: 0.75 µM
IC50 ([6]; Homo sapiens, MDA-MB-231, matrigel assay, read-out: IC50 (concentration at which migration is inhibited to 50% of control)): 3.8 µM
Annexin V staining (early apoptosis) [8]: increases this substantially
caspase-3 activity [9]: particularly good
